The target of data set [1] is T1, cAMP and cAMP-inhibited cGMP 3',5'-cyclic phosphodiesterase 10A (Homo sapiens, UniProt Q9Y233). Description: Inhibition of human recombinant GST-tagged PDE10A using [3H]-cAMP as substrate at 1 uM after 30 mins by scintillation proximity assay.
The target in data set [2] is T1, cAMP and cAMP-inhibited cGMP 3',5'-cyclic phosphodiesterase 10A. The data set can be described thus: Inhibition of human recombinant GST-tagged PDE10A using [3H]-cAMP as substrate after 30 mins by scintillation proximity assay.
Data set [3] addresses T2, cAMP and cAMP-inhibited cGMP 3',5'-cyclic phosphodiesterase 10A (Rattus norvegicus, UniProt Q9QYJ6).
T2 sequence (Q9QYJ6 whole entry): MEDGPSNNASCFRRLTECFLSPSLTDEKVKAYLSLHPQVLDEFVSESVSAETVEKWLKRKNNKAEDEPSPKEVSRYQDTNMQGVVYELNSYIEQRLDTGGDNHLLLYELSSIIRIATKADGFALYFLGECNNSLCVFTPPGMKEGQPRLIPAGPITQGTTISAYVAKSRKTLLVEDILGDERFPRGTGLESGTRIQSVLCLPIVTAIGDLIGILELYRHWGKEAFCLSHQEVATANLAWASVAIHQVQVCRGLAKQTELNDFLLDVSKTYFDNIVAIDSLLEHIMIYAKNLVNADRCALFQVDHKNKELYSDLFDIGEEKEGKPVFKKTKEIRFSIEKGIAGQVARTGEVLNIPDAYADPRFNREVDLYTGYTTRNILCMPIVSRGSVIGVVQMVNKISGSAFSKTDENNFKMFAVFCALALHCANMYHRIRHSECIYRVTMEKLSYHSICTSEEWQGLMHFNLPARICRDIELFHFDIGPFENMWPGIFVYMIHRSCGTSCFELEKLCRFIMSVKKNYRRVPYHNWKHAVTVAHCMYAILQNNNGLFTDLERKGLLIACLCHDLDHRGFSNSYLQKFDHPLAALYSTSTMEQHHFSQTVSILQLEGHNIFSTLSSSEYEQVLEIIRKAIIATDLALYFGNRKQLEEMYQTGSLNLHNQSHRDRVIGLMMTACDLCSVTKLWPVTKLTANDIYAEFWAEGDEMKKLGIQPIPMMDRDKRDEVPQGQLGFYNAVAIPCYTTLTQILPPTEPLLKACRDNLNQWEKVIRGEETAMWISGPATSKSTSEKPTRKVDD
Description: Inhibition of rat recombinant GST-tagged PDE10A using [3H]-cAMP as substrate by scintillation proximity assay.

Data set [4] concerns the target cGMP-dependent 3',5'-cyclic phosphodiesterase (Homo sapiens) (UniProt O00408). The data set can be described thus: Inhibition of human recombinant PDE2A using cAMP as substrate at 1 uM after 30 mins by HTRF method.
Data set [5] has the same target. Description: Inhibition of human recombinant PDE2A using cAMP as substrate at 10 uM after 30 mins by HTRF method. (TR-FRET usually uses a lanthanide donor and a delayed reading to cut background.)
The target of data set [6] is cGMP-inhibited 3',5'-cyclic phosphodiesterase 3A (Homo sapiens) (UniProt Q14432). Description: Inhibition of human recombinant PDE3A using cAMP as substrate at 1 uM after 30 mins by HTRF method.
Data set [7] has the same target. The data set can be described thus: Inhibition of human recombinant PDE3A using cAMP as substrate at 10 uM after 30 mins by HTRF method.
Data set [8] has as its target 3',5'-cyclic-AMP phosphodiesterase 4D (Homo sapiens) (UniProt Q08499). Description: Inhibition of human recombinant PDE4D using [3H]-cAMP as substrate at 1 uM after 30 mins by two-step radiometric assay.
Data set [9] has the same target. Description: Inhibition of human recombinant PDE4D using [3H]-cAMP as substrate at 10 uM after 30 mins by two-step radiometric assay.
The target of data set [10] is cGMP-specific 3',5'-cyclic phosphodiesterase (Homo sapiens) (UniProt O76074). The data set can be described thus: Inhibition of human recombinant PDE5A using […] as substrate at 1 uM after 30 mins by scintillation proximity assay.
For data set [11] the target is unchanged. Description: Inhibition of human recombinant PDE5A using […] as substrate at 10 uM after 30 mins by scintillation proximity assay.
In data set [12] the target is High affinity 3',5'-cyclic-AMP phosphodiesterase 7A (Homo sapiens) (UniProt Q13946). Description: Inhibition of human recombinant PDE7A using [3H]-cAMP as substrate at 1 uM after 30 mins by two-step radiometric assay.
Chain of High affinity 3',5'-cyclic-AMP phosphodiesterase 7A (Homo sapiens) (Q13946 whole entry): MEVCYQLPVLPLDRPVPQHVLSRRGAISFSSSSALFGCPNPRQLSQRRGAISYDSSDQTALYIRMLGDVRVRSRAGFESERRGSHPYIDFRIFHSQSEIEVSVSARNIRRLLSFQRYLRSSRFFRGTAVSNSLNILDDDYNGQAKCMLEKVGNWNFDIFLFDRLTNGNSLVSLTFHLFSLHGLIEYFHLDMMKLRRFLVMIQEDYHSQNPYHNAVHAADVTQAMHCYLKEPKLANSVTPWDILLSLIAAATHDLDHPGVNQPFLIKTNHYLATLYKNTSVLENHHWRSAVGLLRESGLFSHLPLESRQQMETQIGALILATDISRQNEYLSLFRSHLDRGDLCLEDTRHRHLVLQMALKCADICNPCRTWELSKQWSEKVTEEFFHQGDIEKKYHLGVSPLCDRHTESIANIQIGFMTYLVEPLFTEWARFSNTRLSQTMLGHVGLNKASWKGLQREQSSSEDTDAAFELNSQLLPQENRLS
Data set [13] has the same target. Description: Inhibition of human recombinant PDE7A using [3H]-cAMP as substrate at 10 uM after 30 mins by two-step radiometric assay.
Data set [14] has as its target Dual 3',5'-cyclic-AMP and -GMP phosphodiesterase 11A (Homo sapiens) (UniProt Q9HCR9). The data set can be described thus: Inhibition of human recombinant PDE11A using [3H]-cAMP as substrate at 1 uM after 30 mins by two-step radiometric assay.
For data set [15] the target is unchanged. The data set can be described thus: Inhibition of human recombinant PDE11A using [3H]-cAMP as substrate at 10 uM after 30 mins by two-step radiometric assay.
The nature of data set [16]: Metabolic stability in Wistar rat liver microsomes incubated for 10 mins prior to NADPH addition measured after 60 mins by LC/MS/MS analysis. The class given is ADME. As to conditions: read-out: Stability. For orientation: Liver microsomes are a subcellular fraction often used to study metabolism.
Data set [17] is described as follows: Metabolic stability in CD1 mouse liver microsomes incubated for 10 mins prior to NADPH addition measured after 60 mins by LC/MS/MS analysis. Format: ADME. The conditions noted are these: read-out: Stability.
Data set [18] in a line: Metabolic stability in Beagle dog liver microsomes incubated for 10 mins prior to NADPH addition measured after 60 mins by LC/MS/MS analysis. The class given is ADME, Canis lupus familiaris. The conditions noted are these: read-out: Stability.
The nature of data set [19]: Metabolic stability in cynomolgus monkey liver microsomes incubated for 10 mins prior to NADPH addition measured after 60 mins by LC/MS/MS analysis. As to conditions: read-out: Stability. The class given is ADME, Macaca fascicularis.
A short description of data set [20]: Metabolic stability in human liver microsomes incubated for 10 mins prior to NADPH addition measured after 60 mins by LC/MS/MS analysis. Format: ADME. The conditions noted are these: read-out: Stability.

The source of these data is ChEMBL document CHEMBL3352660, “Design, synthesis and pharmacological evaluation of novel polycyclic heteroarene ethers as PDE10A inhibitors: part II” (Bioorg Med Chem Lett, 2014).

T1 sequence (Q9Y233 whole entry): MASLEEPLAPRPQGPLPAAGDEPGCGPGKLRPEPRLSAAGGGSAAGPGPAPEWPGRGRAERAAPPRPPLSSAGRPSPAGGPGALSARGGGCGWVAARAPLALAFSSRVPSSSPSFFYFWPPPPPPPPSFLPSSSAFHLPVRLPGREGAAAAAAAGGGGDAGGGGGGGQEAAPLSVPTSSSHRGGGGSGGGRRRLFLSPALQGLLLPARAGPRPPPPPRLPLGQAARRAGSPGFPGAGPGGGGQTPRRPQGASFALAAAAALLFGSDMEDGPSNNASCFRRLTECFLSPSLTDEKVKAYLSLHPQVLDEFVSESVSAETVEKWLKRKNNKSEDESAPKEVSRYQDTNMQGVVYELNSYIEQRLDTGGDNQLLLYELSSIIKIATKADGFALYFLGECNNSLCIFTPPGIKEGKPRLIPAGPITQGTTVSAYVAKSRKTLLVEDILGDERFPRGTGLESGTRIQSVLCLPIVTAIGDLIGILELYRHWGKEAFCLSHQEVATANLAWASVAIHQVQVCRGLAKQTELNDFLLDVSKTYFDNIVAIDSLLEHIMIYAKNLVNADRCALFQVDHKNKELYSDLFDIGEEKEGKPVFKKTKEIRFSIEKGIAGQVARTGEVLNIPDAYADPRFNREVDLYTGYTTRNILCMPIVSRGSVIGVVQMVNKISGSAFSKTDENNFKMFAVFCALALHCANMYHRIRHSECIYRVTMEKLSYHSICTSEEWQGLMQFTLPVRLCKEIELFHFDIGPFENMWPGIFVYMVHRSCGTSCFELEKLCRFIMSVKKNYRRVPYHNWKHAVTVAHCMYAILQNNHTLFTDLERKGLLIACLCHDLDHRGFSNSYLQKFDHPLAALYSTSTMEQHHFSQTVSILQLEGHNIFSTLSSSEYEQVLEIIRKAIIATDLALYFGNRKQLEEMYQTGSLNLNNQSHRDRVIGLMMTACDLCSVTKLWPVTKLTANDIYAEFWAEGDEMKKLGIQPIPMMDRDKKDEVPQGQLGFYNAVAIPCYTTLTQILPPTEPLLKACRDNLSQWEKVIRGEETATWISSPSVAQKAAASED
Chain of Dual 3',5'-cyclic-AMP and -GMP phosphodiesterase 11A (Homo sapiens) (Q9HCR9 whole entry, looked up): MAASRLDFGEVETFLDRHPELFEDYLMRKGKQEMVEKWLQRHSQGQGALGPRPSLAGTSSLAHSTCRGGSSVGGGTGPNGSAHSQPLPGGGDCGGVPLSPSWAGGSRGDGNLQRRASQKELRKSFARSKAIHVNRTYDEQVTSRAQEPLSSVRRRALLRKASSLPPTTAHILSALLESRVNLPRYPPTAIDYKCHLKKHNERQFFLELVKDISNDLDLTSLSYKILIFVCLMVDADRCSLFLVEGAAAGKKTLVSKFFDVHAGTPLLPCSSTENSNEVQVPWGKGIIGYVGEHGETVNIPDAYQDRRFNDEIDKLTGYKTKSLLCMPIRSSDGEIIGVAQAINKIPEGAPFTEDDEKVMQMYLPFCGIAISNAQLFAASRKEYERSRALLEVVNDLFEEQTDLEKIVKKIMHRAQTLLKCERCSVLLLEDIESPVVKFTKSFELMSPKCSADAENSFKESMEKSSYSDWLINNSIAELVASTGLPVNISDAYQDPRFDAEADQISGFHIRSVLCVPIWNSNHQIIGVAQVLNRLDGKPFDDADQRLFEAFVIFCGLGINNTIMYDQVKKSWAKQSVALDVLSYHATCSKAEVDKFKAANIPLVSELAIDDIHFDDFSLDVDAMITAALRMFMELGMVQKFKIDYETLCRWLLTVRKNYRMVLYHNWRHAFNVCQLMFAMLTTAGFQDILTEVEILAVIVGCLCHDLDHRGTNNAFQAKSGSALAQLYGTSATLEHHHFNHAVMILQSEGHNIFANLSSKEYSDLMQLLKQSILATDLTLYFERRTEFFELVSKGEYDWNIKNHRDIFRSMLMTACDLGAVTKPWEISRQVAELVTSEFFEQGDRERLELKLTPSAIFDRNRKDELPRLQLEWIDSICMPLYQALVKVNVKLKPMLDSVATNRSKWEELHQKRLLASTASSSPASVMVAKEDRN
Chain of 3',5'-cyclic-AMP phosphodiesterase 4D (Homo sapiens) (Q08499 whole entry): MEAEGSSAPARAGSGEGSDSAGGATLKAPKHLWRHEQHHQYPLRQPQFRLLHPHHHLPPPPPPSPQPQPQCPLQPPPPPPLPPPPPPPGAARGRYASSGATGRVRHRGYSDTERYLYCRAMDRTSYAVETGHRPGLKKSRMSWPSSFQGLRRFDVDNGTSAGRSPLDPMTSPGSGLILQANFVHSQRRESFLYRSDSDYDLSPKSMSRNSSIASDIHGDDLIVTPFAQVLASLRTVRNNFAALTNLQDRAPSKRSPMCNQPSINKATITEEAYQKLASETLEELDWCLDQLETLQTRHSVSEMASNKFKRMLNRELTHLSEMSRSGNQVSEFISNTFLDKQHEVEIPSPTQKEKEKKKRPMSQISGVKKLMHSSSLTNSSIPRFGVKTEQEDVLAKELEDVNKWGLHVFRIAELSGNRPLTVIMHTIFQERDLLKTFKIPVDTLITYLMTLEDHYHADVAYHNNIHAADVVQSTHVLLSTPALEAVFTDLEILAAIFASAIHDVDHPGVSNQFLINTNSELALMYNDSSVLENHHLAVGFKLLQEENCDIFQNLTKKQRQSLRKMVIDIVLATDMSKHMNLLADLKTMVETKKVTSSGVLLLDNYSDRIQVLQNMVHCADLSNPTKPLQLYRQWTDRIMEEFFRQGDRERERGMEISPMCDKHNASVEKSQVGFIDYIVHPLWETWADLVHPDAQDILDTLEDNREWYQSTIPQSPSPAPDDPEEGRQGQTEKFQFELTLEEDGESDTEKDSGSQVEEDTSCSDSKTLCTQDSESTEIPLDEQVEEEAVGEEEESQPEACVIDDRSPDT
Chain of cGMP-dependent 3',5'-cyclic phosphodiesterase (Homo sapiens) (O00408 whole entry): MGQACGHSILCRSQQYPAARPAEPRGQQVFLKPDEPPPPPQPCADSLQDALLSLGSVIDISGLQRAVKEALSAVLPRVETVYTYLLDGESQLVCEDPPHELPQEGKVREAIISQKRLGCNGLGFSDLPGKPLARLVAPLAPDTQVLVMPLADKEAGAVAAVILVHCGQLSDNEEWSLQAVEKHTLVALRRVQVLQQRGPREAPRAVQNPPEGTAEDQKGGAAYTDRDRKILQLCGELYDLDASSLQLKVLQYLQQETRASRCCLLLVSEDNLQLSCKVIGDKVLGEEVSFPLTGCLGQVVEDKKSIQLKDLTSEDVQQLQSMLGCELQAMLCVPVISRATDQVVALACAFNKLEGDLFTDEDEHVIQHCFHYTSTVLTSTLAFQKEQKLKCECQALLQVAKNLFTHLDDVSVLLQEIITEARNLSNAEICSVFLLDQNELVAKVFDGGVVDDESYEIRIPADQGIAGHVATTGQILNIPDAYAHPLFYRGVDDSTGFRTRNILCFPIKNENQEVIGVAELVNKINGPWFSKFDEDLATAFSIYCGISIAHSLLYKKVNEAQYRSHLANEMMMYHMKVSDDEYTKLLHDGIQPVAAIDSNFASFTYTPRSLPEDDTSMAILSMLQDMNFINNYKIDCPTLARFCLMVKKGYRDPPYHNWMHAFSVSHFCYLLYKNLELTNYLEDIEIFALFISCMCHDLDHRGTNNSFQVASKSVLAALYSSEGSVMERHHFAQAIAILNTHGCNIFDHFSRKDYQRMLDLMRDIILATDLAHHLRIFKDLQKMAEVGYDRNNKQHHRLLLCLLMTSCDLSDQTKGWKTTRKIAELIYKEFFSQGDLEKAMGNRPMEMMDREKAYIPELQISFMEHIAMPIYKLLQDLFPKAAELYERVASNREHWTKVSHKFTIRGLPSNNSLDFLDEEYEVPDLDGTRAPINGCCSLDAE

Turning to `COc1ccc(-c2nccnc2Oc2ccc(-c3cn(C)c4cc5ccccc5nc34)cc2)cc1`, the inhibition (as a rule, the relative decrease from the control value, in per cent) in [1] was 72.3%. The values for the IC50 in [2] and in [3] were 153 nM and 132 nM, respectively.

Regarding `Cn1cc(-c2cccc(Oc3nccc(-c4cn[nH]c4)n3)c2)c2nc3ccccc3cc21`, the inhibition amounted to 89.3% in data set [1]; 16.1% in data set [4]; 40.8% in data set [5]; 4.5% in [6]; 27.5% in data set [7]; 7.9% in data set [8]. The inhibition in [9] came out at 34.7%; in [10], 8.2%; in data set [11] it was 19%; in [12], 16.7%; in data set [13], 27.2%; in [14], 27.3%. Moreover, the inhibition in data set [15] came to 38.5%. For the same compound, the IC50 – broadly, the concentration needed to halve the response being measured – was 20.9 nM in data set [2] and 122 nM in data set [3]. Also, the remaining at 1 h in [16] came out at 17.3%; in data set [17] it was 60.4%; in data set [18] it was 52%; in data set [19], 38.1%; in data set [20], 75.4%.

Take `COc1ccc(-c2ccnc(Oc3cccc(-c4cn(C)c5cc6ccccc6nc45)c3)n2)cc1`: in data set [1], the inhibition was determined as 72.4%. In addition, the IC50 in data set [2] is 103 nM.

As for `Cn1cc(-c2ccc(Oc3nccnc3-c3ccc(F)cc3)cc2)c2nc3ccccc3cc21`, in [1], the inhibition came out at 76.9%. Further, the IC50 in data set [2] came to 177 nM.

Regarding `Cn1cc(-c2ccc(Oc3nccc(-c4cncnc4)n3)cc2)c2nc3ccccc3cc21`, the inhibition in data set [1] was 85.3%. Moreover, in data set [2], the IC50 turned out to be 128 nM.

In the case of `Cn1cc(-c2cccc(Oc3nccnc3-c3cncnc3)c2)c2nc3ccccc3cc21`, the inhibition in data set [1] is 76.3%. In addition, the IC50 worked out at 267 nM in [2] and 1450 nM in data set [3].

For `Cn1cc(C2=CCC(Oc3nccnc3-c3cncnc3)CC2)c2ncccc21` (stereo not given), in data set [1], the inhibition worked out at 78%. Moreover, the IC50 in data set [2] stood at 136 nM; in data set [3], 552 nM. In addition, the remaining at 1 h was determined as 5.9% in [16]; 8.5% in data set [17]; 43.3% in data set [18]; 0% in [19]; 12.2% in data set [20].

Take `Cn1cc(-c2ccc(Oc3nccnc3-c3cncnc3)cc2)c2nc3ccccc3cc21`: the inhibition in [1] stood at 94.8%; in data set [4] it was 8.9%; in data set [5] it was 14.2%; in [6], 0.3%; in data set [7] it was 9.4%; in data set [8], 1.3%. Besides, the inhibition in data set [9] was 19.5%; in data set [10], 9.4%; in data set [11], 17.3%; in data set [12] it was 6%; in data set [13] it was 20.2%; in [14], 3.3%. In [15], the inhibition amounted to 21.8%. Further, the IC50 in data set [2] is 19.1 nM; in data set [3], 31.1 nM. Besides, the remaining at 1 h in data set [16] is 83.1%; in data set [17], 76.1%; in [18], 77%; in data set [19], 68.3%; in data set [20], 85.2%.

Take `Cn1cc(-c2cccc(Oc3nccc(-c4cncnc4)n3)c2)c2nc3ccccc3cc21`: the inhibition in data set [1] is 95%; in data set [4], 11.4%; in [5], 38.5%; in data set [6], 1.1%; in data set [7] it was 4.8%; in data set [8], 4.2%. Further, the inhibition in [9] amounted to 57%; in data set [10] it was 1.5%; in data set [11], 23.6%; in data set [12] it was 4.5%; in data set [13], 14%; in data set [14], 24.4%. For the same compound, in data set [15], the inhibition was 43.8%. Further, the IC50 in data set [2] amounted to 18.2 nM; in data set [3], 90.3 nM. Besides, the remaining at 1 h came to 44.7% in data set [16]; 3.9% in data set [17]; 40.3% in data set [18]; 4.5% in data set [19]; 39.8% in data set [20].

For the compound `Cn1cc(-c2ccc(Oc3nccnc3-c3ccncc3)cc2)c2ncc(Cl)cc21`, the inhibition in data set [1] stood at 79.7%; in data set [4], 11.3%; in [5], 16.1%; in data set [6] it was 0.7%; in [7], 9.8%; in data set [8], 4.1%. The inhibition in data set [9] amounted to 25.4%; in data set [10] it was 0.1%; in data set [11] it was 19.3%; in data set [12], 5.9%; in data set [13] it was 53.1%; in data set [14] it was 3.1%. Further, the inhibition in data set [15] amounted to 5.7%. The IC50 amounted to 71 nM in [2] and 141 nM in [3]. The remaining at 1 h was 68% in [16]; 70.5% in [17]; 55.3% in [18]; 40.7% in [19]; 77% in [20].

In the case of `Cn1cc(C2CCC(Oc3nccnc3-c3cncnc3)CC2)c2ncccc21` (stereo not given), in data set [1], the inhibition amounted to 68.9%. Moreover, the concentration for half-maximal inhibition (IC50) in data set [2] was found to be 552 nM; in [3], 372 nM. In addition, the remaining at 1 h was found to be 72.5% in data set [16]; 50.3% in data set [17]; 68.6% in data set [18]; 0% in [19]; 48.8% in [20].

On to `Cn1cc(-c2cccc(Oc3nccc(-c4ccc(F)cc4)n3)c2)c2nc3ccccc3cc21`, for which the inhibition in data set [1] was 76.3%. Moreover, the IC50 in data set [2] was determined as 116 nM.

`Cn1cc(-c2cccc(Oc3nccc(N4CCOCC4)n3)c2)c2nc3ccccc3cc21`: the inhibition turned out to be 93.1% in [1]; 15.7% in data set [4]; 76.2% in data set [5]; 0.3% in data set [6]; 21.5% in data set [7]; 5.6% in [8]. Further, the inhibition in [9] was 1%; in data set [10], 16%; in [11] it was 33.3%; in [12] it was 5.8%; in data set [13], 19.5%; in data set [14], 44.6%. Moreover, the inhibition in data set [15] came out at 76.3%. The IC50 in [2] came to 29.2 nM; in data set [3], 167 nM. For the same compound, the remaining at 1 h was determined as 0.4% in data set [16]; 0.6% in [17]; 1.3% in data set [18]; 0.6% in data set [19]; 8.2% in data set [20].
